Test results as given in US20230277562A1, “USE OF C[…] THE TREATMENT OF SEIZURES ASSOCIATED WITH RARE […] SYNDROMES RELATED TO GENETIC ABNORMALITIES” (GW Research Limited, priority 2020, published 2023).
“Also recorded” adds a separate entry of the source.

System: seizures associated with congenital disorder of glycosylation 1P (tonic and myoclonic seizures)
Assay: Open label, expanded-access program of botanically derived purified CBD: seizure frequency in a patient with congenital disorder of glycosylation 1P
Type: in vivo, human
Conditions: for Seizure frequency, Tonic: baseline 448.0; for Seizure frequency, Myoclonic: baseline 700.0
Experimental: The subject was required to be on one or more AEDs at stable doses for a minimum of two weeks prior to baseline and to have stable vagus nerve stimulation (VNS) settings and ketogenic diet ratios for a minimum of four weeks prior to baseline.
Dose was then increased weekly by 5 mg/kg/day to a goal of 25 mg/kg/day.
A maximum dose of 50 mg/kg/day could be utilised for the patient if they were tolerating the medication but had not achieved seizure control; the patient had further weekly titration by 5 mg/kg/day.
Modifications were made to concomitant AEDs as per clinical indication.
Seizure frequency, intensity, and duration were recorded by caregivers in a diary during a baseline period of at least 28 days. Changes in seizure frequency relative to baseline were calculated after at least 2 weeks and at defined timepoints of treatment.
Patients may be defined as responders if they had more than 50% reduction in seizure frequency compared to baseline. The percent change in seizure frequency was calculated as follows: […]
The percent change of seizure frequency may be calculated for any time interval where seizure number has been recorded. For the purpose of this example the percent change of seizure frequency for the end of the treatment period was calculated as follows: […]

[1] = Patient 1, 2 weeks, dose CBD 9.1 mg/kg/day
[2] = Patient 1, 4 weeks, dose CBD 18.2 mg/kg/day
[3] = Patient 1, 8 weeks, dose CBD 26.3 mg/kg/day
[4] = Patient 1, 12 weeks, dose CBD 19.0 mg/kg/day
[5] = Patient 1, 16 weeks, dose CBD 13.3 mg/kg/day
[6] = Patient 1, treated for 132 weeks, relative to baseline

## C=C(C)[C@@H]1CCC(C)=C[C@H]1c1c(O)cc(CCCCC)cc1O [CBD, cannabidiol]
[1]
  Seizure frequency, Tonic: 328.0
  Seizure frequency, Myoclonic: 384.0
[2]
  Seizure frequency, Tonic: 231.2
  Seizure frequency, Myoclonic: 424.8
[3]
  Seizure frequency, Tonic: 52.0
  Seizure frequency, Myoclonic: 608.0
[4]
  Seizure frequency, Tonic: 22.8
  Seizure frequency, Myoclonic: 986.0
[5]
  Seizure frequency, Tonic: 20.0
  Seizure frequency, Myoclonic: 1251.2
[6]
  reduction in myoclonic seizures over the treatment period: 72.1%
  reduction in tonic seizures over the treatment period: 57.2%
Patient with congenital disorder of glycosylation 1P
  effect on frequency/number of tonic and myoclonic seizures (in words): effective in reducing the frequency of tonic and myoclonic seizures; also recorded: significantly reduce the number of seizures; also recorded: significant reduction in tonic and myoclonic seizures
